# From patent US9783527B2, “Indazole ureas and method of use” (AbbVie Inc., priority 2014, dated 2017)
# Molecular target: human Nav1.7 (Homo sapiens (Human), UniProt Q15858)
# Assay: FRET-based membrane potential assay, recombinant human sodium channel Nav1.7
# Type: cell-based
# Conditions: HEK293 cells stably expressing recombinant human Nav1.7; depolarization with veratridine (EC80) + scorpion venom
# In short: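 IC50 derived by four-parameter Hill fit of percent inhibition of depolarization, measured as peak F440-480/F565-625 ratio over baseline. Stable human Nav1.7 HEK293 cells, dye-loaded with CC2-DMPE and DiSBAC2(3)/VABSC-1 at room temperature, received compound 3 min ahead of veratridine (EC80) plus scorpion venom.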
# Sequence of human Nav1.7 (Q15858 whole entry): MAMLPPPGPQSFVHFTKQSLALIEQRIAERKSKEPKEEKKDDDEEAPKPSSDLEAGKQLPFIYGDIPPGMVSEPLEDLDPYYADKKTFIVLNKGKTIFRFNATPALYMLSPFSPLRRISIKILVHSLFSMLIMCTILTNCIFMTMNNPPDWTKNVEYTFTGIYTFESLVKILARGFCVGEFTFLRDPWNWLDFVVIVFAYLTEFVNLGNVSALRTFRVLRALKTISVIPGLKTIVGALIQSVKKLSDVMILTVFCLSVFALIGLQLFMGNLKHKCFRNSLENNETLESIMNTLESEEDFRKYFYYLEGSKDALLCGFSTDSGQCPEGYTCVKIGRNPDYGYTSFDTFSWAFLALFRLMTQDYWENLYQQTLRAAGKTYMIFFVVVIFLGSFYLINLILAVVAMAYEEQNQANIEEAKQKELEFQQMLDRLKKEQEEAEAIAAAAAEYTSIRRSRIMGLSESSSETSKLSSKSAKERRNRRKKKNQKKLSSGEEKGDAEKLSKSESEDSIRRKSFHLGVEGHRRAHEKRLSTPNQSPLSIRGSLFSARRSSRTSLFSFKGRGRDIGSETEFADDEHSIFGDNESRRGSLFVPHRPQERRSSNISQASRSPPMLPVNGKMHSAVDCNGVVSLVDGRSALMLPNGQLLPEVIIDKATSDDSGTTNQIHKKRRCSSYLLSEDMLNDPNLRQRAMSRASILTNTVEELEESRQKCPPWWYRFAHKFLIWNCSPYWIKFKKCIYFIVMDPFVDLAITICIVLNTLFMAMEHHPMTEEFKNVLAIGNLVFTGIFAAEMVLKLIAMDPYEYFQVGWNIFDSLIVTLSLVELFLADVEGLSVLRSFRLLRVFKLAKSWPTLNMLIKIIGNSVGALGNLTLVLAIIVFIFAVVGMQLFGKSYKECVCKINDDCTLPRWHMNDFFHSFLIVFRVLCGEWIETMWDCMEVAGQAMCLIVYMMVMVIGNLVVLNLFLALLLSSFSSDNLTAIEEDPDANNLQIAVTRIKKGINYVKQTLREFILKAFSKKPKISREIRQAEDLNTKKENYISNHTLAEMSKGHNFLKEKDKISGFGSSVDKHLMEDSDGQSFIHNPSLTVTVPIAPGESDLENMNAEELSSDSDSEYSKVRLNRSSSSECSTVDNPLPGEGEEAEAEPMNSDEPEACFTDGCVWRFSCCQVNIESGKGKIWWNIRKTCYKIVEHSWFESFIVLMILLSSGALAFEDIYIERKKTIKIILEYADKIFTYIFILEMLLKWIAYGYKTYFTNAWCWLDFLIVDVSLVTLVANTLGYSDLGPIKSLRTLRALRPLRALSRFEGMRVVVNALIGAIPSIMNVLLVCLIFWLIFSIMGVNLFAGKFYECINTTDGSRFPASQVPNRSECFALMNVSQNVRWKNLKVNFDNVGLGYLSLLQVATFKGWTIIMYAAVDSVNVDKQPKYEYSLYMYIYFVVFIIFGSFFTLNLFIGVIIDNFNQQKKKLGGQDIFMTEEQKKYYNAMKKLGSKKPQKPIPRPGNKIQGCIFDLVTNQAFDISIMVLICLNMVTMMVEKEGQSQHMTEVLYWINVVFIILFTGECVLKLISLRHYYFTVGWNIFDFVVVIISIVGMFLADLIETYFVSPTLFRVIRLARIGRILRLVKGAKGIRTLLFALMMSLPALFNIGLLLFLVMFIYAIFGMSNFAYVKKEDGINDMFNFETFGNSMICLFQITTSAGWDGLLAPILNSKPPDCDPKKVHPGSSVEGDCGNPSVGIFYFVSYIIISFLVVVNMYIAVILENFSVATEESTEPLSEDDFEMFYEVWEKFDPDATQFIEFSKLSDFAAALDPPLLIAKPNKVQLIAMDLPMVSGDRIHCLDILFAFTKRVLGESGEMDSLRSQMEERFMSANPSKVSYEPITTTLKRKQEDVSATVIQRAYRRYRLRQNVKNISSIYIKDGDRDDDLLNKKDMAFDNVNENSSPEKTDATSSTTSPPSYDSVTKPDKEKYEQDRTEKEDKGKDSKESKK
row,Structure (SMILES),IC50 [nM]
1,"CN1CC2CN(C(=O)CN3CCN(c4cccc5c4cnn5-c4ccccc4F)C3=O)CC2C1 (stereo not shown) [Example 104, 1-[1-(2-fluorophenyl)-1H-indazol-4-yl]-3-[2-(5-methylhexahydropyrrolo[3,4-c]pyrrol-2(1H)-yl)-2-oxoethyl]imidazolidin-2-one]",6260
2,"CC1CN(C(=O)CN2CCN(c3cccc4c3cnn4-c3ccccc3F)C2=O)CC(C)O1 (stereo not shown) [Example 70, 1-[2-(2,6-dimethylmorpholin-4-yl)-2-oxoethyl]-3-[1-(2-fluorophenyl)-1H-indazol-4-yl]imidazolidin-2-one]",12200
3,"O=C1N(CC2CCCC2)CCN1c1cccc2c1cnn2-c1ccccc1F [Example 181, 1-(cyclopentylmethyl)-3-[1-(2-fluorophenyl)-1H-indazol-4-yl]imidazolidin-2-one]",6270
4,"Cn1cc2cc(N3CCN(c4cccc5c4cnn5-c4ccccc4F)C3=O)ccc2n1 [Example 191, 1-[1-(2-fluorophenyl)-1H-indazol-4-yl]-3-(2-methyl-2H-indazol-5-yl)imidazolidin-2-one]",2950
5,"CCc1nnc(CN2CCN(c3cccc4c3cnn4-c3ccccc3F)C2=O)o1 [Example 261, 1-[(5-ethyl-1,3,4-oxadiazol-2-yl)methyl]-3-[1-(2-fluorophenyl)-1H-indazol-4-yl]imidazolidin-2-one]",3410
6,"CC(C)C(C)(O)CN1CCN(c2cccc3c2cnn3-c2ccccc2F)C1=O (stereo not shown) [Example 180, 1-[1-(2-fluorophenyl)-1H-indazol-4-yl]-3-(2-hydroxy-2,3-dimethylbutyl)imidazolidin-2-one]",3230
7,"O=C1N(Cc2cocn2)CCCN1c1cccc2c1cnn2-c1ccccc1F [Example 225, 1-[1-(2-fluorophenyl)-1H-indazol-4-yl]-3-(1,3-oxazol-4-ylmethyl)tetrahydropyrimidin-2(1H)-one]",14000
8,"O=C1N(Cc2cc(F)ccc2F)CCN1c1cccc2c1cnn2-c1ccccc1F [Example 197, 1-(2,5-difluorobenzyl)-3-[1-(2-fluorophenyl)-1H-indazol-4-yl]imidazolidin-2-one]",2140
9,"COC[C@H]1CCCN1C(=O)CN1CCN(c2cccc3c2cnn3-c2ccccc2F)C1=O [Example 170, 1-[1-(2-fluorophenyl)-1H-indazol-4-yl]-3-{2-[(2R)-2-(methoxymethyl)pyrrolidin-1-yl]-2-oxoethyl}imidazolidin-2-one]",795
10,"O=C1N(c2cccnn2)CCN1c1cccc2c1cnn2-c1ccccc1F [Example 208, 1-[1-(2-fluorophenyl)-1H-indazol-4-yl]-3-(pyridazin-3-yl)imidazolidin-2-one]",3260
11,"CCc1nc(CN2CCN(c3cccc4c3cnn4-c3ccccc3F)C2=O)cs1 [Example 250, 1-[(2-ethyl-1,3-thiazol-4-yl)methyl]-3-[1-(2-fluorophenyl)-1H-indazol-4-yl]imidazolidin-2-one]",1140
12,"CCOC(=O)/C=C/N1CCN(c2cccc3c2cnn3-c2ccccc2F)C1=O [Example 288, ethyl (2E)-3-{3-[1-(2-fluorophenyl)-1H-indazol-4-yl]-2-oxoimidazolidin-1-yl}acrylate]",5300
13,"O=C1N(c2cccc3c2cnn3-c2ccccc2F)CCN1[C@@H]1CCCC[C@H]1OCc1ccccc1 [Example 272, 1-[(1R,2R)-2-(benzyloxy)cyclohexyl]-3-[1-(2-fluorophenyl)-1H-indazol-4-yl]imidazolidin-2-one]",338
14,"C[C@@]1(c2cccc(F)c2)C[C@H](N2CCN(c3cccc4c3cnn4-c3ccccc3F)C2=O)CO1 [Example 195, 2,5-anhydro-1,3,4-trideoxy-2-(3-fluorophenyl)-4-{3-[1-(2-fluorophenyl)-1H-indazol-4-yl]-2-oxoimidazolidin-1-yl}-D-erythro-pentitol]",1390
15,"CC(C)OCC(=O)N1CCN(c2cccc3c2cnn3-c2ccccc2F)C1=O [Example 96, 1-[1-(2-fluorophenyl)-1H-indazol-4-yl]-3-(isopropoxyacetyl)imidazolidin-2-one]",1640
16,"C[C@@H]1CCCN1C(=O)CN1CCN(c2cccc3c2cnn3-c2ccccc2F)C1=O [Example 118, 1-[1-(2-fluorophenyl)-1H-indazol-4-yl]-3-{2-[(2R)-2-methylpyrrolidin-1-yl]-2-oxoethyl}imidazolidin-2-one]",1100
17,"C[C@H](NC(=O)CN1CCN(c2cccc3c2cnn3-c2ccccc2F)C1=O)c1ccccc1 [Example 178, 2-{3-[1-(2-fluorophenyl)-1H-indazol-4-yl]-2-oxoimidazolidin-1-yl}-N-[(1S)-1-phenylethyl]acetamide]",2000
18,"CC(C)CCCC(=O)CN1CCN(c2cccc3c2cnn3-c2ccccc2F)C1=O [Example 132, 1-[1-(2-fluorophenyl)-1H-indazol-4-yl]-3-(6-methyl-2-oxoheptyl)imidazolidin-2-one]",713
19,"O=C1N(Cc2cnco2)CCN1c1cccc2c1cnn2-c1ccccc1F [Example 231, 1-[1-(2-fluorophenyl)-1H-indazol-4-yl]-3-(1,3-oxazol-5-ylmethyl)imidazolidin-2-one]",3650

row,Structure (SMILES),IC50 [nM]
1,"O=C(OC1CCCCC1)N1CCN(c2cccc3c2cnn3-c2ccccc2F)C1=O [Example 131, cyclohexyl 3-[1-(2-fluorophenyl)-1H-indazol-4-yl]-2-oxoimidazolidine-1-carboxylate]",286
2,"O=C1N(c2ccc(C3CC3)o2)CCN1c1cccc2c1cnn2-c1ccccc1F [Example 192, 1-(5-cyclopropyl-2-furyl)-3-[1-(2-fluorophenyl)-1H-indazol-4-yl]imidazolidin-2-one]",1360
3,"O=C1N(c2cccc3c2cnn3-c2ccccc2F)CCN1[C@@H]1CCCC[C@H]1O [Example 273, 1-[1-(2-fluorophenyl)-1H-indazol-4-yl]-3-[(1R,2R)-2-hydroxycyclohexyl]imidazolidin-2-one]",4860
4,"O=C(CN1CCN(c2cccc3c2cnn3-c2ccccn2)C1=O)N1CCCC1 [Example 278, 1-[2-oxo-2-(pyrrolidin-1-yl)ethyl]-3-[1-(pyridin-2-yl)-1H-indazol-4-yl]imidazolidin-2-one]",5780
5,"CC[C@@H](CO)N1CCN(c2cccc3c2cnn3-c2ccccc2F)C1=O [Example 159, 1-[1-(2-fluorophenyl)-1H-indazol-4-yl]-3-[(2S)-1-hydroxybutan-2-yl]imidazolidin-2-one]",3590
6,"COC[C@H]1CC[C@H](COC)N1C(=O)CN1CCN(c2cccc3c2cnn3-c2ccccc2F)C1=O [Example 65, 1-{2-[(2R,5R)-2,5-bis(methoxymethyl)pyrrolidin-1-yl]-2-oxoethyl}-3-[1-(2-fluorophenyl)-1H-indazol-4-yl]imidazolidin-2-one]",678
7,"O=C1N(CC2COC2)CCN1c1cccc2c1cnn2-c1ccccc1F [Example 200, 1-[1-(2-fluorophenyl)-1H-indazol-4-yl]-3-(oxetan-3-ylmethyl)imidazolidin-2-one]",3610
8,"CN1CCCC2CN(C(=O)CN3CCN(c4cccc5c4cnn5-c4ccccc4F)C3=O)CC21 (stereo not shown) [Example 112, 1-[1-(2-fluorophenyl)-1H-indazol-4-yl]-3-[2-(1-methyloctahydro-6H-pyrrolo[3,4-b]pyridin-6-yl)-2-oxoethyl]imidazolidin-2-one]",2690
9,"COCc1nc(CN2CCN(c3cccc4c3cnn4-c3ccccc3F)C2=O)cs1 [Example 254, 1-[1-(2-fluorophenyl)-1H-indazol-4-yl]-3-{[2-(methoxymethyl)-1,3-thiazol-4-yl]methyl}imidazolidin-2-one]",825
10,"Cc1nnc(CN2CCN(c3cccc4c3cnn4-c3ccc(C(F)(F)F)cc3)C2=O)s1 [Example 240, 1-[(5-methyl-1,3,4-thiadiazol-2-yl)methyl]-3-{1-[4-(trifluoromethyl)phenyl]-1H-indazol-4-yl}imidazolidin-2-one]",13400
11,"O=C1N(c2cccc3c2cnn3-c2ccccc2F)CCN1C1CNC1 [Example 268, 1-(azetidin-3-yl)-3-[1-(2-fluorophenyl)-1H-indazol-4-yl]imidazolidin-2-one]",15000
12,"O=C(CN1CCN(c2cccc3c2cnn3-c2ccccc2F)C1=O)c1ccc(F)nc1 [Example 147, 1-[1-(2-fluorophenyl)-1H-indazol-4-yl]-3-[2-(6-fluoropyridin-3-yl)-2-oxoethyl]imidazolidin-2-one]",1050
13,"CCC(O)(CC(C)C)CN1CCN(c2cccc3c2cnn3-c2ccccc2F)C1=O (stereo not shown) [Example 148, 1-(2-ethyl-2-hydroxy-4-methylpentyl)-3-[1-(2-fluorophenyl)-1H-indazol-4-yl]imidazolidin-2-one]",2280
14,"CC(C)OC1CN(C(=O)CN2CCN(c3cccc4c3cnn4-c3ccccc3F)C2=O)C1 [Example 67, 1-[1-(2-fluorophenyl)-1H-indazol-4-yl]-3-[2-(3-isopropoxyazetidin-1-yl)-2-oxoethyl]imidazolidin-2-one]",2430
15,"Cc1noc(C)c1CN1CCCN(c2cccc3c2cnn3-c2ccccc2F)C1=O [Example 258, 1-[(3,5-dimethyl-1,2-oxazol-4-yl)methyl]-3-[1-(2-fluorophenyl)-1H-indazol-4-yl]tetrahydropyrimidin-2(1H)-one]",11000
16,"O=C1N(CCc2cccnc2)CCN1c1cccc2c1cnn2-c1ccccc1F [Example 220, 1-[1-(2-fluorophenyl)-1H-indazol-4-yl]-3-[2-(pyridin-3-yl)ethyl]imidazolidin-2-one]",1840
17,"CC(C)c1cc(CN2CCN(c3cccc4c3cnn4-c3ccccc3F)C2=O)on1 [Example 249, 1-[1-(2-fluorophenyl)-1H-indazol-4-yl]-3-[(3-isopropyl-1,2-oxazol-5-yl)methyl]imidazolidin-2-one]",2430
18,"CC(C)(C)c1cnc(CN2CCN(c3cccc4c3cnn4-c3ccccc3F)C2=O)o1 [Example 233, 1-[(5-tert-butyl-1,3-oxazol-2-yl)methyl]-3-[1-(2-fluorophenyl)-1H-indazol-4-yl]imidazolidin-2-one]",1020
